{"source": "ChEMBL document CHEMBL3886568", "about": "“Pyridine derivatives as agonists of the CB2 receptor” (2016)", "molecular_target": "Cannabinoid receptor 1 (Homo sapiens, UniProt P21554)", "sequence (P21554 whole entry)": "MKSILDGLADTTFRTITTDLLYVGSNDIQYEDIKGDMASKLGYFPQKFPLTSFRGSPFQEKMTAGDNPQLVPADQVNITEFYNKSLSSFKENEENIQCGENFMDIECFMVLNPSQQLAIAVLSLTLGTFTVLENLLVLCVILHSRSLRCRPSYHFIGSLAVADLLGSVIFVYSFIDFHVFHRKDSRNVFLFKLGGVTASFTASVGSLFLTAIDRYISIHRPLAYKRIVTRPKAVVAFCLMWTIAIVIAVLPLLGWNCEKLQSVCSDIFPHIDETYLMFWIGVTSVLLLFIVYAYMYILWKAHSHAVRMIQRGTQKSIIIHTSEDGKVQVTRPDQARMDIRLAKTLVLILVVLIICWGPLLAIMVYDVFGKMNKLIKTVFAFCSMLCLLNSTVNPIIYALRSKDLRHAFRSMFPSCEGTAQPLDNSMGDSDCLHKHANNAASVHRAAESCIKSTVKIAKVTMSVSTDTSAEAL", "experiment": "cAMP Assay: CHO cells expressing human CB1 or CB2 receptors are seeded 17-24 hours prior to the experiment 50.000 cells per well in a black 96 well plate with flat clear bottom (Corning Costar #3904) in DMEM (Invitrogen No. 31331), 1×HT supplement, with 10% fetal calf serum and incubated at 5% CO2 and 37° C. in a humidified incubator. The growth medium was exchanged with Krebs Ringer Bicarbonate buffer with 1 mM IBMX and incubated at 30° C. for 30 min Compounds were added to a final assay volume of 100 ul and incubated for 30 min at 30° C. Using the cAMP-Nano-TRF detection kit the assay (Roche Diagnostics) was stopped by the addition of 50 ul lysis reagent (Tris, NaCl, 1.5% Triton X100, 2.5% NP40, 10% NaN3) and 50 ul detection solutions (20 uM mAb Alexa700-cAMP 1:1, and 48 uM Ruthenium-2-AHA-cAMP) and shaken for 2 h at room temperature. The time-resolved energy transfer is measured by a TRF reader (Evotec Technologies GmbH), equipped with a ND:YAG laser as excitation source. The plate is measured twice with the excitation at 355 nm and at the emission with a delay of 100 ns and a gate of 100 ns, total exposure time 10 s at 730 (bandwidth 30 nm) or 645 nm (bandwidth 75 nm), respectively. The FRET signal is calculated.", "type": "functional, cell-based"}
{"smiles": "O=C(N[C@@H](CC1CC1)C(=O)NC1CCC(O)C1)c1ccc(C2CC2)c(OCC2CC2)n1", "note": "(stereo partly specified)", "values": [{"measurement": "EC50", "result": "> 10", "unit": "µM"}]}
